Data from article PMC11502443 (Frontiers in Pharmacology, 2024).
Changes are numbered by the printed parent chain.

How the values were obtained:
[1] = molecular target: T1, human WT GIP receptor (E354) (Homo sapiens, UniProt P48546); assay: IP1 accumulation (IP-one Gq kit), WT GIP receptor; format: cell-based
T1 construct: host or cells: Cos7 cells, transient transfection with PEI, pcDNA3.1+
T1 sequence (P48546 22-466): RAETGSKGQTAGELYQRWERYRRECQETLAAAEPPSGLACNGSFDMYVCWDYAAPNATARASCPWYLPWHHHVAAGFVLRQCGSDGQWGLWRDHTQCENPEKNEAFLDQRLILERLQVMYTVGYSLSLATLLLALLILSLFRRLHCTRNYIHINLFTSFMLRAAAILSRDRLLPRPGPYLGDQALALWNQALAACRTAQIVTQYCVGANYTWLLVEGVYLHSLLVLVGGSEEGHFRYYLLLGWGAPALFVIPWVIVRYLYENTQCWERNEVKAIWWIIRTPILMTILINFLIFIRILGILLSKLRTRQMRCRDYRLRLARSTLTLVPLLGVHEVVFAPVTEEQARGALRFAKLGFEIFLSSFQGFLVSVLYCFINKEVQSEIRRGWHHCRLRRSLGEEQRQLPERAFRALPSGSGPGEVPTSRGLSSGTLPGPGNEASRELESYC
Experimental: (§1) Using a PCR thermocycler (Applied Biosystems PCR system 9700, ThermoFisher, CA, United States), the DNA was initially denatured at 95°C for 2 min, followed by 25 cycles of 98°C for 30 s, 66°C for 15 s and 72°C for 3.5 min. Following the PCR reaction, 1 μL Dpn1 was added, and the DNA transformed into XL.10-gold Ultracompetent E. coli (Agilent Technologies, CA, United States). Plasmid DNA was purified using the NucleoBond Xtra Maxi kit (Macherey-Nagel, Germany) and sequenced prior to use (Centre for Genomics, Proteomics and Metabolomics, University of Auckland).
Cos7 cells were cultured and transfected as previously described ([Tasma et al., 2022]; [Bower et al., 2018]). […]
The IP-one Gq assay kit (Cisbio, PerkinElmer) was used to quantify accumulated myo-inositol-1-phosphate (IP1), a by-product of IP3 produced after receptor-mediated Gαq activation in Cos7 cells, as previously described ([Tasma et al., 2022]; [Bower et al., 2018]). […] Samples were processed as previously described and read using an Envision plate reader (PerkinElmer). IP1 concentrations were determined from a standard curve generated in duplicate.
(§2) All data were plotted and analyzed using GraphPad Prism 8.0 (GraphPad Software Inc.). […]

[2] = molecular target: T1, human WT GIP receptor (E354); assay: AKT phosphorylation (AlphaLISA pAKT Ser473), WT GIP receptor; format: cell-based; conditions: for Emax: read-out: Emax pAKT
Experimental: as §1
(§3) Cos7 cells were cultured and transfected as previously described ([Tasma et al., 2022]; [Bower et al., 2018]). Briefly, Cos7 cells were cultured in DMEM supplemented with 8% fetal bovine serum (FBS) in a 37°C humidified incubator with 5% CO2 and seeded into 96-well SpectraPlates at a density of 20,000 cells per well 24 h prior to transfection. […] All plasmid sequences were verified prior to use.
(§4) Phosphorylated (p) Protein Kinase B (AKT), extracellular signal-regulated kinase 1/2 (ERK1/2) and CREB were detected using the AlphaLISA SureFire Ultra pAKT (Ser473), AlphaLISA SureFire Ultra pERK1/2 (Thr202/Tyr204) or AlphaLISA SureFire Ultra pCREB (Ser133) assay kit (PerkinElmer) as per the manufacturer’s protocol. Briefly, Cos7 cells were serum-starved in assay media (DMEM +0.1% BSA) for 4 h at 37°C with 5% CO2 prior to peptide stimulation. Peptides were serially diluted in assay media, and cells were incubated with assay media alone or each concentration of peptide for 15 min. FBS (50%) in pERK1/2 and pAKT or 50 μM forskolin in pCREB assays were used as positive controls. Media was then aspirated, and the cells were lysed in 40 μL of the kit lysis buffer, followed by shaking for 10–15 min at room temperature. Ten microliters of cell lysate was transferred to a white 384-well OptiPlate. […] Plates were read on an Envision plate reader (PerkinElmer). […]
as §2

[3] = molecular target: T2, human GIP receptor E354Q variant (Homo sapiens, UniProt P48546, E354Q); assay: AKT phosphorylation (AlphaLISA pAKT Ser473), E354Q GIP receptor; format: cell-based; conditions: for Emax: read-out: Emax pAKT
T2 construct: expressed in transfected cells; host or cells: Cos7 cells, transient transfection with PEI, pcDNA3.1+; mutant plasmid made in house from the purchased WT construct
T2 sequence (P48546 22-466 E354Q): T1 sequence (P48546 22-466) with E333Q
Experimental: as §1, §3, §4, §2

[4] = molecular target: T1, human WT GIP receptor (E354); assay: ERK1/2 phosphorylation (AlphaLISA pERK1/2 Thr202/Tyr204), WT GIP receptor; format: cell-based; conditions: read-out: Emax pERK1/2
Experimental: as §1
(§5) Cos7 cells were cultured and transfected as previously described ([Tasma et al., 2022]; [Bower et al., 2018]). Briefly, Cos7 cells were cultured in DMEM supplemented with 8% fetal bovine serum (FBS) in a 37°C humidified incubator with 5% CO2 and seeded into 96-well SpectraPlates at a density of 20,000 cells per well 24 h prior to transfection. […]
(§6) Phosphorylated (p) Protein Kinase B (AKT), extracellular signal-regulated kinase 1/2 (ERK1/2) and CREB were detected using the AlphaLISA SureFire Ultra pAKT (Ser473), AlphaLISA SureFire Ultra pERK1/2 (Thr202/Tyr204) or AlphaLISA SureFire Ultra pCREB (Ser133) assay kit (PerkinElmer) as per the manufacturer’s protocol. […] Plates were read on an Envision plate reader (PerkinElmer). […]
as §2

[5] = molecular target: T2, human GIP receptor E354Q variant; assay: ERK1/2 phosphorylation (AlphaLISA pERK1/2 Thr202/Tyr204), E354Q GIP receptor; format: cell-based; conditions: read-out: Emax pERK1/2
Experimental: as §1, §5, §6, §2

[6] = molecular target: T1, human WT GIP receptor (E354); assay: CREB phosphorylation (AlphaLISA pCREB Ser133), WT GIP receptor; format: cell-based; conditions: for Emax: read-out: Emax pCREB
Experimental: as §1, §3, §4, §2

[7] = molecular target: T2, human GIP receptor E354Q variant; assay: CREB phosphorylation (AlphaLISA pCREB Ser133), E354Q GIP receptor; format: cell-based; conditions: read-out: Emax pCREB
Experimental: as §1, §5, §6, §2

albumin = conditions: cited from earlier work
Text: Understanding the signalling of GIP receptors is essential to elucidating their physiological effects and exploiting this receptor as a drug target. The GIP receptor is often reported to couple to Gαs alone ([Oduori et al., 2020b]). […] This indicates potential coupling to Gαq, as IP1 is a stable by-product of IP3 ([Garbison et al., 2004]). The induction of cAMP accumulation by the endogenous GIP agonists was similar to previous studies ([Hansen et al., 2016]; [Yuliantie et al., 2021]). Tirzep ...

Row | SMILES | EC50 ([1]; WT, Cos7, 90 min, 37°C, DMEM + 0.1% BSA + 1% 10 mM LiCl, mean ± s.e.m., n = 5, read-out: pEC50 IP1 (converted)) [nM] | EC50 ([2]; WT, Cos7, 15 min, DMEM + 0.1% BSA, mean ± s.e.m., n = 3) [nM] | Emax [2] [%] | EC50 ([3]; E354Q, Cos7, 15 min, DMEM + 0.1% BSA, mean ± s.e.m., n = 3) [nM] | Emax [3] [%] | Emax [4] [%] | Emax [5] [%] | EC50 ([6]; WT, Cos7, 15 min, DMEM + 0.1% BSA, mean ± s.e.m., n = 3, read-out: pEC50 pCREB (converted)) [nM] | Emax [6] [%] | Emax [7] [%] | Emax ([1]; read-out: Emax IP1, % of maximal response) [%] | albumin binding (albumin)
1 | CC[C@H](C)[C@H](NC(=O)[C@H](CO)NC(=O)[C@H](Cc1ccc(O)cc1)NC(=O)[C@H](CC(=O)O)NC(=O)[C@H](CO)NC(=O)[C@@H](NC(=O)[C@H](Cc1ccccc1)NC(=O)[C@@H](NC(=O)CNC(=O)[C@H](CCC(=O)O)NC(=O)[C@H](C)NC(=O)[C@@H](N)Cc1ccc(O)cc1)[C@@H](C)O)[C@@H](C)CC)C(=O)N[C@@H](C)C(=O)N[C@@H](CCSC)C(=O)N[C@@H](CC(=O)O)C(=O)N[C@@H](CCCCN)C(=O)N[C@H](C(=O)N[C@@H](Cc1c[nH]cn1)C(=O)N[C@@H](CCC(N)=O)C(=O)N[C@@H](CCC(N)=O)C(=O)N[C@@H](CC(=O)O)C(=O)N[C@@H](Cc1ccccc1)C(=O)N[C@H](C(=O)N[C@@H](CC(N)=O)C(=O)N[C@@H](Cc1c[nH]c2ccccc12)C(=O)N[C@@H](CC(C)C)C(=O)N[C@@H](CC(C)C)C(=O)N[C@@H](C)C(=O)N[C@@H](CCC(N)=O)C(=O)N[C@@H](CCCCN)C(N)=O)C(C)C)[C@@H](C)CC [GIP(1-30)NH2] | 1.62 | 1.48 | 97.1 ± 4.56 | 0.813 | 50.9 ± 1.72 | 117 ± 3.91 | 73.9 ± 9.75 | 0.0631 | 117 ± 8.75 | 70.7 ± 32.9 | – | –
2 | CC[C@H](C)[C@H](NC(=O)[C@H](CC(C)C)NC(=O)[C@H](Cc1c[nH]c2ccccc12)NC(=O)[C@H](CCC(N)=O)NC(=O)[C@@H](NC(=O)[C@H](Cc1ccccc1)NC(=O)[C@H](C)NC(=O)[C@H](CCCCNC(=O)COCCOCCNC(=O)COCCOCCNC(=O)CC[C@H](NC(=O)CCCCCCCCCCCCCCCCCCC(=O)O)C(=O)O)NC(=O)[C@H](CCC(N)=O)NC(=O)[C@H](C)NC(=O)[C@@H](NC(=O)[C@H](CCCCN)NC(=O)[C@H](CC(=O)O)NC(=O)[C@H](CC(C)C)NC(=O)C(C)(C)NC(=O)[C@@H](NC(=O)[C@H](CO)NC(=O)[C@H](Cc1ccc(O)cc1)NC(=O)[C@H](CC(=O)O)NC(=O)[C@H](CO)NC(=O)[C@@H](NC(=O)[C@H](Cc1ccccc1)NC(=O)[C@@H](NC(=O)CNC(=O)[C@H](CCC(=O)O)NC(=O)C(C)(C)NC(=O)[C@@H](N)Cc1ccc(O)cc1)[C@@H](C)O)[C@@H](C)O)[C@@H](C)CC)[C@@H](C)CC)C(C)C)C(=O)N[C@@H](C)C(=O)NCC(=O)NCC(=O)N1CCC[C@H]1C(=O)N[C@@H](CO)C(=O)N[C@@H](CO)C(=O)NCC(=O)N[C@@H](C)C(=O)N1CCC[C@H]1C(=O)N1CCC[C@H]1C(=O)N1CCC[C@H]1C(=O)N[C@@H](CO)C(N)=O [Tirzepatide] | – | – | 87.7 ± 2.6 | – | 51.9 ± 8.95 | – | 80.2 ± 17.3 | – | 91.5 ± 10.9 | 59.4 ± 34.8 | 54.9 | binds to albumin
